Assay results from ChEMBL document CHEMBL2396598, “Anti-neuroinflammatory diarylheptanoids from the rhizomes of Dioscorea nipponica” (Bioorg Med Chem Lett, 2013).

Assays:
BV-2 = assay: Antineuroinflammatory activity in mouse BV2 cells assessed as inhibition of LPS-induced nitric oxide production after 24 hrs by Griess assay; format: functional, cell-based; settings: BV-2, 24 h
[1] = Cytotoxicity against LPS-treated mouse BV2 cells assessed as cell viability at 20 uM relative to control; format: cell-based, BV-2; settings: read-out: Activity

IC50 (BV-2) | Structure (SMILES) | viability at 20 µM [1]
57.1 µM | O=C(/C=C/c1ccc(O)cc1)C[C@H](O)CCc1ccc(O)cc1 | 99.4%
38.1 µM | Oc1ccc(CC[C@H]2C[C@H](O)C[C@@H](c3ccc(O)cc3)O2)cc1 | 95.6%
14.4 µM | O=C(/C=C/C=C/c1ccc(O)c(O)c1)CCc1ccc(O)cc1 | 104%
7.84 µM | O=C(/C=C/C=C/c1ccc(O)c(O)c1)CCc1ccc(O)c(O)c1 | 24.6%
8.44 µM | COc1ccc(/C=C/C=C/C(=O)CCc2ccc(O)cc2)cc1 | 18.5%
18.6 µM | Oc1ccc(/C=C/[C@H]2C[C@H](O)C[C@@H](c3ccc(O)cc3)O2)cc1 | 91.4%
13.4 µM | COc1cc(/C=C/C=C/C(=O)CCc2ccc(O)cc2)ccc1O | 115%
39.7 µM | Oc1ccc(CC[C@H]2C[C@@H](O)C[C@@H](c3ccc(O)cc3)O2)cc1 | 96.8%
45.9 µM | COc1cc(CC[C@H]2C[C@H](O)C[C@@H](c3ccc(O)c(OC)c3)O2)ccc1O | 116%
5.99 µM | COc1cc(/C=C/C(=O)/C=C/c2ccc(O)cc2)ccc1O | 25.5%
 | CNC(=N)NCCC[C@H](N)C(=O)O [TILARGININE] | 103%
89.7 µM | COc1cc(CC[C@@H](O)C[C@H](O)CCc2ccc(O)c(O)c2)ccc1O | 99.2%
95.1 µM | COc1cc(CC[C@H]2C[C@@H](O)C[C@@H](c3ccc(O)c(OC)c3)O2)ccc1O | 109%
